# Read-outs that look alike come from different tables or passages of the source.
# How the values were obtained:
# [1] = Human hepatocyte stability; format: in vitro ADME
# Description: (§1) The in vivo activity of a compound is influenced by its overall bioavailability, which is also driven by parameters, such as solubility, permeability, and metabolism. […] These values are all above the industry cut-off of 60 μg/ml. […] It has CLint in human hepatocytes of 16 μL/min/10^6 cells, which falls into moderate stability range [43].
# [2] = target: T1, Stat3:Stat3 DNA-binding activity (Mus musculus, UniProt P42227); test: EMSA of Stat3:Stat3 DNA-binding activity in nuclear extracts; format: biochemical; conditions: for Stat3:Stat3 % of Con, pre-formed Stat3:DNA complex: extract pre-incubated with hSIE probe 30 min
# T1 construct: endogenous in cells; host or cells: NIH3T3/v-Src fibroblasts; EGF-stimulated NIH3T3/hEGFR fibroblasts (nuclear extracts)
# T1 sequence (P42227 2-770 limits assumed): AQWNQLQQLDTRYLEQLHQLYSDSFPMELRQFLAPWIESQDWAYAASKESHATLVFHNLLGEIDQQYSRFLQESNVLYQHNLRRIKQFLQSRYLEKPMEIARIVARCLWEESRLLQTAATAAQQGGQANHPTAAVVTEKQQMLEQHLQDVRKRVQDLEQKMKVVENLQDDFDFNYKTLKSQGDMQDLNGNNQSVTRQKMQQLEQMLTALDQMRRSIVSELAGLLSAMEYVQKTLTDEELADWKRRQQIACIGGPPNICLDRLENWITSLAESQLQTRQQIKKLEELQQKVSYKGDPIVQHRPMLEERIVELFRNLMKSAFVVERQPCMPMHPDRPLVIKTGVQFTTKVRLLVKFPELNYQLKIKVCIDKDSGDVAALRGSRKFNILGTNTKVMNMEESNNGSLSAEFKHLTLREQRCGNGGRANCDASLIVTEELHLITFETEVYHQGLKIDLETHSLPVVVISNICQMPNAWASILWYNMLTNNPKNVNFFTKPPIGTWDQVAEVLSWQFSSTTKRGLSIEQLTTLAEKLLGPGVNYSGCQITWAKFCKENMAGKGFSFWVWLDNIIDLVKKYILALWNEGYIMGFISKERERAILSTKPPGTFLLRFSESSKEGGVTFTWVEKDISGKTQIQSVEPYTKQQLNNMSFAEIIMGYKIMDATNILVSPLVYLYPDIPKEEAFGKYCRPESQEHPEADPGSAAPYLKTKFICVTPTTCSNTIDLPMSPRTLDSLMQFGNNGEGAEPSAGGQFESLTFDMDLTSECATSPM
# Description: Details are presented in Supplementary Information, “Methods”. […]
# min, prior to incubation with the radiolabeled probe for 30 min at 30 °C and subjecting to EMSA analysis.
# In another case, the nuclear extract was pre-incubated with the radiolabeled probe for 30 min at 30 °C prior to incubation with increasing concentration of H182 at room temperature for 30 min and subjecting to EMSA analysis. Bands corresponding to Stats DNA- binding activities were scanned and quantified using ImageJ and plotted as a percentage of control (vehicle) against the concentration of the inhibitor, from which the IC50 values were derived .
# CYP2D6 = target: T2, CYP2D6 (Homo sapiens, UniProt P10635); test: CYP inhibition, CYP2D6; format: in vitro ADME; conditions: read-out: CYP Inhibition CYP2D6 % Inh at 10 μM
# T2 construct: Eurofins-CEREP (contract research organisation that ran the assay)
# T2 sequence (P10635 whole entry, species assumed): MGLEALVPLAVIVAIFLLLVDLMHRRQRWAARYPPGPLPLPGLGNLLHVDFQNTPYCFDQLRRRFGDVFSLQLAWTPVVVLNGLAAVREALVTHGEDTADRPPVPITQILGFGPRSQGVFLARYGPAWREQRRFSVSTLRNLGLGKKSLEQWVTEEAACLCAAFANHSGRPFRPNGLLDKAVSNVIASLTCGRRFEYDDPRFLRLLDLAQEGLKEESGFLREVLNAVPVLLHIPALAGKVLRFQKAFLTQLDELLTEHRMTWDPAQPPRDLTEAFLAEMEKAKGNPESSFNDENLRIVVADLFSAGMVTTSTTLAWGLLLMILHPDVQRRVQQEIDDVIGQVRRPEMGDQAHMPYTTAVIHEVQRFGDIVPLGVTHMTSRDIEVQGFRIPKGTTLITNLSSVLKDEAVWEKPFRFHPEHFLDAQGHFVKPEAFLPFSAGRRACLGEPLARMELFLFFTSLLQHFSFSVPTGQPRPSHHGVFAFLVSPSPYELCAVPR
# Description: as §1
# [3] = target: SH2 domain of pure recombinant Stat3 (Homo sapiens, UniProt P40763); test: Stat3 fluorescence polarization (FP) assay; format: binding; conditions: 0–10 μM, 5-carboxyfluorescein-GpYLPQTV-NH2 probe
# Chain of SH2 domain of pure recombinant Stat3 (P40763 whole entry, the tested form may be a part): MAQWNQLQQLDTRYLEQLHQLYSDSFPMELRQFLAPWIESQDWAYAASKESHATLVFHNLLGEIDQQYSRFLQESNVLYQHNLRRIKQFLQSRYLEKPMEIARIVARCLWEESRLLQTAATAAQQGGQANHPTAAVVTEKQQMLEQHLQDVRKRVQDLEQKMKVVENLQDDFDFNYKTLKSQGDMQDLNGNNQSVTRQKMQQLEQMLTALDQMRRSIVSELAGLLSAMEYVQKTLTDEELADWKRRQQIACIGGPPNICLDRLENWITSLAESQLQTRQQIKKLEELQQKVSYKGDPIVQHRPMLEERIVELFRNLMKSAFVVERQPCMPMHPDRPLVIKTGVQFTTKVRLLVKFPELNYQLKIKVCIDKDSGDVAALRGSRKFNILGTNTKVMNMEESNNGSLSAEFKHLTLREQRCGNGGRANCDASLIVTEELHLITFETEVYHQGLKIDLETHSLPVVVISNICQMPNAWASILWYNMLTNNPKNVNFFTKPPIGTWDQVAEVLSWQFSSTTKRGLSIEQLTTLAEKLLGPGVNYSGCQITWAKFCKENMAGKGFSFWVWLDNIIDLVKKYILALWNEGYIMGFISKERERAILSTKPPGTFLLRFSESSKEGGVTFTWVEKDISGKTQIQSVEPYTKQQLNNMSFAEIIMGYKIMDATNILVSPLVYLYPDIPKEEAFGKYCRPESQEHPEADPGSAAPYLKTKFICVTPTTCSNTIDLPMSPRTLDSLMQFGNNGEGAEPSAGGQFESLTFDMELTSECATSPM
# Description: Details are presented in Supplementary Information, “Methods”.
# The Stat3:azetidine compound interaction was investigated further by focusing on how the compounds might interfere with Stat3 dimerization (Stat3:Stat3), which occurs via pTyr peptide:SH2 domain interaction. […]
# confocal microscope (Stellaris 8-STED Super -resolution , Germany) with a 60x oil lens and images were processed by ImageJ software.
# 1.2.9. Fluorescence polarization assay (FP)
# These studies were conducted as previously reported using the labeled phosphopeptide, 5-carboxyfluorescein GpYLPQTV-NH 2 (where pY represents phospho-Tyr) as probe and purified recombinant Stat3, with some modifications. […]
# 10 µM of unlabeled GpYLPQTV-NH 2 (positive control) or H182 at 30 °C for 30 min in the indicated assay buffer conditions, prior to the addition of the labeled probe at 10 nM final concentration and incubated for 30 min at room temperature, and thereafter reading the FP signal at 10, 30, and 60 min using the SpectraMax ID5 (Molecular Devices, San Jose, CA), with the set gain adjustment at 35 mP. In some cases, the recombinant His-Stat3 was pre-incubated with the unlabeled GpYLPQTV-NH 2 or H182 at 0-10 µM for 10 min or at 0-50 µM for 30 min prior to incubation with the labeled probe, and thereafter reading the FP signal at 10, 30, or 60 min using the SpectraMax ID5, with the set gain adjustment at 35 mP.
# 1.2.10. […]
# [4] = target: T3, glucocorticoid receptor (GR) (Homo sapiens, UniProt P04150); test: CEREP SafetyScreen44, glucocorticoid receptor; format: binding
# T3 construct: Eurofins-CEREP (SafetyScreen44 panel)
# T3 sequence (P04150 whole entry): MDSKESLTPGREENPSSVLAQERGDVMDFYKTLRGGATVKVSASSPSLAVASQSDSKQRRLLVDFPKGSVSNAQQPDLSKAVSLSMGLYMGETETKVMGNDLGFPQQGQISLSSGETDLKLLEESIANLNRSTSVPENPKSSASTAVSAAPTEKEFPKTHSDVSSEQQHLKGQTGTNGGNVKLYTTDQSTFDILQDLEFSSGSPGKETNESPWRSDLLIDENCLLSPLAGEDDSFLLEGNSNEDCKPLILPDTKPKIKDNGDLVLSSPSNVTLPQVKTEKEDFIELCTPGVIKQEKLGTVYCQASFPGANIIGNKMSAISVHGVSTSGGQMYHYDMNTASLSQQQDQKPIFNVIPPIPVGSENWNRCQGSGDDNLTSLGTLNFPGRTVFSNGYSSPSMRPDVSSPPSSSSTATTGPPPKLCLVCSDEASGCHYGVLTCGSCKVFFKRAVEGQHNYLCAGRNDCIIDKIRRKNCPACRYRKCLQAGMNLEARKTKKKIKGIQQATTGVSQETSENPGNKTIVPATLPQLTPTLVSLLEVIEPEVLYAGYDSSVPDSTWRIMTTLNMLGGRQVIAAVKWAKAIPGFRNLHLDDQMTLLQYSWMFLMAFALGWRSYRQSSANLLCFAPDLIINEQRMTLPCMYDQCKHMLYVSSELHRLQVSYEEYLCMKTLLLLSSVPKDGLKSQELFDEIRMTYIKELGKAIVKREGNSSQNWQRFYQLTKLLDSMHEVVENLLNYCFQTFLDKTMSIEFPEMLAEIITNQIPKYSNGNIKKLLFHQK
# [5] = 2 μM H182, incubation time 3 min
# [6] = 2 μM H182, incubation time 10 min
# [7] = 2 μM H182, incubation time 30 min
# [8] = 2 μM H182, incubation time 60 min
smiles,measurement,setting,value
O=C([C@H]1CCN1S(=O)(=O)c1c(F)c(F)c(F)c(F)c1F)N(Cc1ccc(C2CCCCC2)cn1)c1ccc2c(=O)[nH]ncc2c1 [Compound H182],Metabolic Stability Human Hepatocytes CLint,[1],14.6 μL/min/10^6 cells
same,half-life,"[1]; hepatocytes, read-out: Human Hepatocytes t1/2",1.13 h
same,hepatocyte CLint,"[1]; hepatocytes, read-out: Metabolic Stability Human Hepatocytes CLint",16 µL/min/1e6 cells
same,Stat3:Stat3 Intensity (% of Con),"[2]; 2 μM H182, incubation time 0 min",100 % of Con
same,Stat3:Stat3 Intensity (% of Con),[2]; [5],84 % of Con
same,inhibition at 2 µM,[2]; [5],16%
same,Stat3:Stat3 Intensity (% of Con),[2]; [6],65 % of Con
same,inhibition at 2 µM,[2]; [6],35%
same,Stat3:Stat3 Intensity (% of Con),[2]; [7],14 % of Con
same,inhibition at 2 µM,[2]; [7],86%
same,Stat3:Stat3 Intensity (% of Con),[2]; [8],0.1 % of Con
same,inhibition at 2 µM,[2]; [8],99.9%
same,IC50,"[2]; EMSA, NIH3T3/v-Src nuclear extracts, 30-min incubation at room temperature before hSIE probe, read-out: Stat3:Stat3 IC50",660 ± 100 nM
same,IC50,"[2]; EMSA, incubation time 10 min before hSIE probe, read-out: Stat3:Stat3 IC50",1470 nM
same,IC50,"[2]; EMSA, incubation time 60 min before hSIE probe, read-out: Stat3:Stat3 IC50",380 nM
same,IC50,"[2]; Fig. 1C, extracts of EGF-stimulated NIH3T3/hEGFR, hSIE probe, 30 min, read-out: IC50 Stat3:Stat3",700 nM
same,"Stat3:Stat3 % of Con, pre-formed Stat3:DNA complex",[2]; then 1 μM H182 30 min,101 % of Con
same,"Stat3:Stat3 % of Con, pre-formed Stat3:DNA complex",[2]; then 3 μM H182 30 min,101 % of Con
same,"Stat3:Stat3 % of Con, pre-formed Stat3:DNA complex",[2]; then 10 μM H182 30 min,100 % of Con
same,"Stat3:Stat3 % of Con, pre-formed Stat3:DNA complex",[2]; then 30 μM H182 30 min,98 % of Con
same,"Stat3:Stat3 % of Con, pre-formed Stat3:DNA complex",[2]; then 100 μM H182 30 min,86 % of Con
same,IC50,"[2]; range over the named compounds and incubation times, read-out: IC50 Stat3 DNA-binding activity in vitro (summary range)",380 to 980 nM
same,Inhibition of the pre-formed Stat3:DNA complex,[2]; up to 100 μM H182,unable to inhibit the pre-formed Stat3:DNA complex
same,inhibition at 10 µM,CYP2D6,9%
same,Effect on FP signal,[3],fluctuations of the FP signal
same,inhibition at 10 µM,[4]; 10 μM H182,> 80%
same,IC50,[4]; SafetyScreen44 follow-up dose-response,110 nM
